{"source": "patent US7192979B2", "about": "“EP4 receptor selective agonist in the treatment of osteoporosis” (Pfizer Inc., priority 2000, dated 2007)", "key": {"[1]": {"system": "293S cells transfected with EP2", "assay": "Kidney regeneration assay: induction of BMP-7 expression (Northern blot) in EP2 293S cells", "assay_type": "cell-based, human", "conditions": "10^-6M, RNA at 8, 16 and 24 hours, time dependent", "procedure": "(§1) The role of a prostaglandin agonist in kidney regeneration is investigated by the ability of Prostaglandin E2 (PGE2) or a prostaglandin agonist to induce the expression of Bone Morphogenetic Protein 7 (BMP-7) in wild type 293S cells and in 293S cells transfected with EP2.\n(§2) Methods: 293S and EP2 293S cells are grown in Dulbecco's Modified Egale medium (DMEM, Gibco, BRL; Gaithersburg, Md.). One day prior to treatment with PGE2 or a prostaglandin agonist, cells are plated at a density of 1.5×10^6 cells/10 cm dish. Generally about 16 to 24 hours later the cell monolayer is washed once with OptiMEM (Gibco, BRL; Gaithersburg, Md.) followed by the addition of 10 ml OptiMEM/dish in the presence and absense of vehicle (DMSO), PGE2 (10^−6M) or a prostaglandin agonist (10^−6M). Cells are harvested and RNA is extracted at 8, 16 and 24 hours. Northern blot analysis of total RNA ([…]) is carried out by probing the blots with ^32P-labeled BMP-7 probe. The blots are normalized for RNA loading by hybridization with ^32P-labeled 18s ribosomal RNA probe. […] Given the known role of BMP-7 in kidney regeneration and the ability of an prostaglandin agonist to induce BMP-7 expression in 293S kidney cells in a time and receptor specific manner indicates a role for prostaglandin agonist in kidney regeneration."}, "[2]": {"system": "wild type 293S cells", "assay": "Kidney regeneration assay: induction of BMP-7 expression (Northern blot) in wild type 293S cells", "assay_type": "cell-based, human", "conditions": "parental (wild type) 293S cell line; 10^-6M; 8, 16 and 24 hours", "procedure": "as §1, §2"}, "[3]": {"system": "ovariectomized (OVX) rat model", "conditions": "model for postmenopausal osteoporosis, Ke et al., Bone 23:249-255, 1998; cited from earlier work"}}, "data": [{"smiles": "CCCCC[C@H](O)/C=C/[C@H]1[C@H](O)CC(=O)[C@@H]1C/C=C\\CCCC(=O)O", "note": "[PGE2, prostaglandin E2]", "values": [{"measurement": "expression of Bone Morphogenetic Protein 7 (BMP-7)", "setting": "[1]", "value": "induce the expression of BMP-7"}, {"measurement": "expression of Bone Morphogenetic Protein 7 (BMP-7)", "setting": "[2]", "value": "generally not observed"}, {"measurement": "restoration of lost bone", "setting": "[3]", "value": "can restore lost bone"}]}]}
